The values below come from patent US20030216448A1, “Treatment of neuropathic pain” (priority 2002, published 2003).

Series [1] deals with rat paw withdrawal model of acute thermal pain. The series can be described thus: rat paw withdrawal model of acute thermal pain, normal rats. Type of series: in vivo. The following applies: A-85380 0.75 μmol/kg. The text has this:
For the assessment of acute pain, a paw thermal stimulator was used to evaluate nociceptive responses to an acute thermal stimulus (Anesthesiology Research Laboratory, Department of Anesthesiology, University of California at San Diego, La Jolla, Calif.). The device and behavioral procedure have been described previously (Hargreaves et al., A new and sensitive method for measuring thermal nociception in cutaneous hyperalgesia, Pain 1988, 32:77-88; Dirig et al., Characterization of variables defining hind paw withdrawal latency evoked by radiant thermal stimuli, J. Neurosci. Meth. 1997; 76:183-191). […] The measured nociceptive response was the latency to withdraw the hind paw when heated by light from a focused projector lamp (current set at 4.8 A). […]
(§1) For acute thermal pain experiments, a baseline withdrawal threshold was determined, and then chlorisondamine or its vehicle was administered. […]
For experiments with repeated measures, i.e. acute thermal pain and mechanical allodynia, data were first analyzed using a two way repeated measures analysis of variance (ANOVA) with two independent factors. For experiments without repeated measures, i.e. formalin, data were first analyzed using a two way ANOVA with two independent factors. […] All post hoc significance was determined using Fishers LSD.

The subject of series [2] is rat spinal nerve ligation model of neuropathic pain. The series is described as follows: mechanical allodynia (von Frey) in the spinal nerve ligation model of neuropathic pain. It is filed as in vivo. The text has this:
(§2) Under halothane anesthesia, the L5 and L6 spinal nerves were tightly ligated in the manner described previously by Chung et al. (Kim S. H., Chung J. M., An experimental model for peripheral neuropathy produced by segmental spinal nerve ligation in the rat. Pain 1992; 50:355-363.). Briefly, an incision was made on the dorsal portion of the hip, and the muscle was blunt dissected to reveal the spinal processes. The L6 transverse process was removed, and the left L5 and L6 spinal nerves were tightly ligated with 5.0 braided silk suture. The wound was cleaned, the membrane sewn with 4.0 dissolvable Vicryl suture and the skin closed with wound clips.
Implantation of the DRG catheters was performed immediately following nerve ligation, with animals maintained under halothane for the entire procedure (35-40 minutes). Catheters were constructed of PE 20 with small pieces of tygon tubing cemented along the catheter to allow for suture anchoring points during surgery. The left L5 DRG was exposed by removing the posterior articular process of the L5 vertebra. Gelfoam was inserted into the cavity to prevent the catheter from damaging the ganglion. The catheter was sutured to the muscle and fascia, then run subcutaneously to exteriorize between the shoulder blades. Saline was infused into the catheter, and it was heat sealed.
The implantation of i.c.v. cannulae were conducted under sodium pentobarbital (50 mg/kg, i.p. Nembutal) anesthesia with nerve ligation occurring just after the implantation; animals were maintained under anesthesia for the entire procedure (40-45 minutes). Animals were implanted with a 22 gauge guide cannulae (Plastics One, Roanoke Va.) cut to 6 mm. The stereotaxic coordinates from bregma were 1.0 mm posterior, 1.6 mm lateral, and 4.5 ventral (Paxinos G. and Watson C., The rat brain in stereotaxic coordinates. New York: Academic Press, 1997). Three skull screws were attached for stability, and the implant was covered with cranioplastic acrylic.
For i.c.v. (intracerebroventricular) infusion, chlorisondamine (10 μg) was dissolved in 5 μl phosphate buffered saline and infused by syringe pump at a rate of 5 μl/min. The infusion was performed 24 hours prior to testing in order to reduce stress to the animals immediately prior to behavioral testing.
For all other routes of administration including intraperotineal (i.p.), intradermal (i.d.) or onto the DRG, chlorisondamine was dissolved in saline. The final volumes for i.p. injections were 1 ml/kg, for i.d. were 50 μl and for DRG injections were 10 μl. All injections were made by hand held syringe.
For the assessment of neuropathic pain, mechanical allodynia in the affected paw of animals who had undergone spinal nerve ligation was evaluated using von Frey filaments. As described previously (Chaplan et al., Quantitative assessment of tactile allodynia in the rat paw. J Neurosci Meth, 1994; 53:55-62), two weeks following surgery, rats were acclimated to the testing box which was constructed of plexiglass with a wire mesh floor to allow access to the planter surface of the hind paws. Using the Dixons Up-Down method, a baseline level of allodynia was taken with allodynia defined as a withdrawal threshold ≦4 g. Test compounds were then administered and subsequent withdrawal thresholds determined.
For spinal nerve ligation experiments, the timing of antagonist administration depended upon the route of administration. With i.c.v. administration, chlorisondamine or its vehicle was given 24 hours prior to further manipulation. On the day of the experiment, a baseline allodynia score was determined and then A-85380 or its vehicle control was given and measures taken at 15, 30 and 60 minutes post agonist injection. Dose response curves for i.p., i.d. and DRG administration were also determined using this time line. […]

Series [3] has as its system formalin model of persistent pain. The series is described as follows: formalin model of persistent pain, phase two. Type of series: in vivo, rat. Conditions: A-85380 0.75 μmol/kg. Here is the method:
The formalin test was used as an assessment of persistent pain. The method, described previously (Bannon et al. 1998) is briefly as follows. Following acclimation to the test environment, 50 μl of a 5% formalin solution was injected subcutaneously into the dorsal surface of one of the rear paws. Only phase two, defined as the 20 minute period from 30 to 50 minutes post formalin injection, was scored for nocifensive behaviors including flinching, licking, and biting.
For formalin experiments, chlorisondamine or its vehicle was infused either 24 h or 40-50 minutes prior to further manipulation. A-85380 was then injected and, 5 minutes later, formalin was injected into the paw. Measures were taken between 30 and 50 minutes post formalin injection.
For experiments with repeated measures, i.e. acute thermal pain and mechanical allodynia, data were first analyzed using a two way repeated measures analysis of variance (ANOVA) with two independent factors. For experiments without repeated measures, i.e. formalin, data were first analyzed using a two way ANOVA with two independent factors. If there was a significant interaction of both factors or of both factors and time, subsequent post hoc one way ANOVAs were performed using each treatment combination as an independent group. The difference in paw withdrawal latencies between the affected and unaffected paw of neuropathic animals tested in acute thermal pain was assessed using a paired t-test. All post hoc significance was determined using Fishers LSD.

Series [4] is described as follows: side effects observed after injection in spinal nerve ligated rats. It is filed as in vivo, rat.
Series [5] has as its system rat paw withdrawal model of acute thermal pain using neuropathic rats. The series can be described thus: rat paw withdrawal model of acute thermal pain using neuropathic rats. Type of series: in vivo. The following applies: antagonist 0.4 μmol/kg, i.p., A-85380 0.75 μmol/kg.
From the text: as §2
For the assessment of acute pain, a paw thermal stimulator was used to evaluate nociceptive responses to an acute thermal stimulus (Anesthesiology Research Laboratory, Department of Anesthesiology, University of California at San Diego, La Jolla, Calif.). […] The measured nociceptive response was the latency to withdraw the hind paw when heated by light from a focused projector lamp (current set at 4.8 A). […]
as §1
To address this concern, neuropathic rats were assessed in the acute thermal model of paw withdrawal. […]

Where a name gives a salt, the structure may show the parent alone. A value given as a limit tells only on which side of the number the result lay.

As for `Cl.Cl.c1cncc(OC[C@@H]2CCN2)c1` [A-85380, 3-(2(S)-azetidinylmethoxy)pyridine dihydrochloride], in series [1] (i.p.), the “antinociception (increase in paw withdrawal latency)” value is reported as “antinociceptive action”. For the same compound, the “duration of anti-allodynia after DRG infusion” value in series [2] (10 μg onto the L5 DRG) is 15 min. Also, in series [2] (20 μg onto the L5 DRG), the “duration of anti-allodynia after DRG infusion” value came to 30 min. Also, the “anti-allodynia after ipsalateral paw injection” value in series [2] (10, 20 and 50 μg/rat, i.d., affected paw, predominately at 15 minutes) is on record as “only the 50 μg dose of A-85380 had an anti-allodynic effect”. Besides, the “anti-allodynia after contralateral paw injection” value in series [2] (10, 20 and 50 μg/rat, i.d., unaffected paw, predominately at 15 minutes) is “all three doses of A-85380 induced a significant anti-allodynia”. Further, the “anti-allodynia when infused onto the L5 DRG” value in series [2] (10 and 20 μg onto the L5 DRG on the side of the ligation) is recorded as “significant anti-allodynia”. Further, the “potency to increase paw withdrawal threshold, DRG compared with i.p. and i.d. administration” value in series [2] (i.d. and DRG doses converted to equivalent systemic dose, fifteen-minute time point) is listed as “decidedly more potent when administered directly onto the DRG”. Further, in series [2] (i.p., multiple doses, 15, 30 and 60 minutes), the “anti-allodynia (paw withdrawal threshold), systemic administration” value was “dose dependent anti-allodynia”. Besides, the “analgesia (decrease in flinches), phase two of formalin test” value in series [3] (i.p.) is listed as “analgesic effects”. For the same compound, in series [4] (A-85380 0.5-1.0 μmol/kg, i.p.), the “behaviors induced immediately following injection” value is “prostration and ataxia”; the “time point by which prostration and ataxia abated” value is not above 15 min.
As to `CNC1(C)C2CCC(C2)C1(C)C` (stereo not shown) [Mecamylamine, mecamylamine hydrochloride], the “effect of antagonist pretreatment on A-85380 induced anti-allodynia” value in series [2] (antagonist 1 μmol/kg, i.p. 30 minutes prior, A-85380 0.75 μmol/kg, i.p.) is reported as “completely blocked”. Besides, in series [4] (antagonist 1 μmol/kg, i.p. 30 minutes prior to A-85380), the “effect of antagonist on prostration and ataxia following A-85380 injection” value was “blocked the prostration and ataxia”.
`C[N+](C)(C)CCCCCC[N+](C)(C)C` [Hexamethonium, hexamethonium]: the “effect of systemically administered antagonist on A-85380 induced anti-allodynia” value in series [2] (antagonist 19 μmol/kg, i.p. 30 minutes prior, A-85380 0.75 μmol/kg, i.p.) is “blocked”.
`O=C(NO)c1cncc(N2C[C@H]3CNC[C@H]32)c1` [A-420503, (IR, 5S) 5-(3,6-diazabicyclo [3.2.0]hept-6-yl)-N-hydroxy-nicotinamide]: in series [2] (4.77 μmol/kg, i.p.), the “anti-allodynia at the DRG” value is “significant anti-allodynia”. The “anti-allodynia when injected i.p.” value in series [2] (62 μmol/kg, i.p.) is “significant anti-allodynia”. Also, in series [2] (pretreatment with an NMR antagonist), the “effect of antagonist pretreatment on the compound's effects at the DRG” value is on record as “blocked”. Also, the “side effects when injected i.p.” value in series [4] (62 μmol/kg, i.p.) is given as “without any notable side effects”.
Regarding `C[N+](C)(C)CC[N+]1(C)Cc2c(Cl)c(Cl)c(Cl)c(Cl)c2C1` [chlorisondamine, chlorisondamine diiodide], in series [5], the “effect of antagonist on A-85380 induced antinociception in neuropathic rats” value was “did not alter”. In addition, the “effect of antagonist pretreatment on the antinociceptive action of A-85380” value in series [1] (antagonist 0.4 μmol/kg, i.p. 30 minutes prior) is recorded as “no effect”. Besides, in series [2] (antagonist 0.4 μmol/kg, i.p. 30 minutes prior, A-85380 0.75 μmol/kg, i.p.), the “effect of systemically administered antagonist on A-85380 induced anti-allodynia” value is reported as “completely blocked”. The “effect of systemic antagonist on anti-allodynia induced by A-85380 infused onto the DRG” value in series [2] (antagonist 0.4 μmol/kg, i.p. 30 minutes prior, A-85380 20 μg onto DRG) is reported as “completely blocked”. In series [2] (antagonist 10 μg i.c.v. 24 hours prior, A-85380 0.75 μmol/kg, i.p.), the “effect of i.c.v. antagonist on A-85380 induced anti-allodynia” value was “completely blocked”. Besides, in series [3] (antagonist 0.4 μmol/kg, i.p. 40-50 minutes prior to formalin), the “effect of systemically administered antagonist on A-85380-induced analgesia” value is “no significant attenuation”. Further, in series [3] (antagonist 10 μg i.c.v. 24 hours prior, i.p.), the “effect of i.c.v. antagonist on A-85380-induced analgesia” value is recorded as “completely blocked”.
